# Experimental data taken from patent US7117100B2, “Method for the compositional analysis of polymers” (Massachusetts Institute of Technology, priority 1999, dated 2006).
# Key:
# [1] = test system: Heparinase II; experiment: Incubation of hexasaccharide with heparinase II; assay type: biochemical
# [2] = target: T1, heparinase III (Pedobacter heparinus, UniProt Q59289); experiment: Cleavage of defined oligosaccharide substrates by heparinase III; assay type: biochemical, Flavobacterium heparinum
# T1 construct: made in house
# Description: Secondary specificities of the heparinases have been observed, especially under exhaustive degradation conditions. As a part of ongoing investigations into the enzymology of heparinases, the relative rates of cleavage of I and G containing sites by heparinase I and III with defined substrates under different conditions have been measured. For instance heparinase III cleaves both at I and G containing linkages and not I2S [H. E. Conrad, Heparin Binding Proteins (Academic Press, San Diego, 1998).]. However, under the reaction conditions used in this study, there is a dramatic (8-10 fold) difference in the rates of cleavage, with I-containing linkages being clipped more slowly than G-containing linkages (FIG. 7A). […] Each reaction was followed by capillary electrophoresis. […] Under the “short” conditions of digest it is expected that only G-containing saccharides are cleaved to an appreciable extent. [Conditions for enzymatic digest of HLGAG oligosaccharides were set forth above, briefly, Digests were either designated as “short” or “exhaustive”. Short digests were completed with 50 nM enzyme for 10 minutes. Exhaustive digests were completed using 200 nM enzyme for either four hours or overnight. Partial nitrous acid cleavage was completed using a modification of published procedures. Briefly, to an aqueous solution of saccharide was added a 2× solution of sodium nitrite in HCl such that the concentration of nitrous acid was 2 mM and HCl was 20 mM. The reaction was allowed to proceed at room temperature with quenching of aliquots at various time points via the addition of 1 μL of 200 mM sodium acetate 1 mg/mL BSA pH 6.0. Exhaustive nitrous acid was completed by reacting saccharide with 4 mM nitrous acid in HCl overnight at room temperature.
# Quite a few factors have severely limited and complicated prior art studies and interpretation of heparinase substrate specificity experiments. First, not only is a homogenous substrate preparation difficult, but also analyzing the substrates and products have been very challenging. […]
# [3] = target: FGF-2 (Homo sapiens, UniProt P09038); experiment: Saccharide binding to FGF-2 immobilized on the MALDI surface, salt wash, MALDI-MS detection
# Chain of FGF-2 (P09038 134-288 limits assumed, species assumed): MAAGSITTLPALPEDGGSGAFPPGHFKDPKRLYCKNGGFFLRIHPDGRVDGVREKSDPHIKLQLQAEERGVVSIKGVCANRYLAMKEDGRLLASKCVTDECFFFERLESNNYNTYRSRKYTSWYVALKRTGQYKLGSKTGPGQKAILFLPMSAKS
# Procedure: Protein preparation and immobilization. ATIII was incubated overnight with excess porcine mucosal heparin, then biotinylated with EZ-link sulfo-NHS biotin (Pierce). Canon NP Type E transparency film was taped to the MALDI sample plate and used as a protein immobilization surface. FGF-1 and FGF-2 were immobilized by spotting 1 μl of aqueous solution on the film and air-drying. ATIII was immobilized by first drying 4 μg neutravidin on the film surface, then adding biotinylated ATIII to the neutravidin spot. Heparin was removed by washing ten times with 1M NaCl and ten times with water.
# Saccharide binding, selection and analysis. Saccharides were derived from a partial digest of porcine mucosal heparin by heparinase I. The hexasaccharide fraction was obtained by size exclusion chromatography on Biogel P-6 and lyophilized to dryness. Saccharides were bound to immobilized proteins by spotting 1 μl of aqueous solution on the protein spot for at least five minutes. Unbound saccharides were removed by washing with water fifteen times. […] All saccharides were detected as noncovalent complexes with (RG)19R using MALDI parameters described herein.
# Isolation, Purification, and Selection of FGF binders from SMC heparan sulfate. […] After drying, the sample was washed, 2 pmol/μl (RG)19R in matrix was added, and the sample was analyzed as outlined above.
# [4] = Relative rates of cleavage of tetrasaccharides by recombinant heparinase III, followed by capillary electrophoresis; assay type: biochemical
# Description: (§1) Secondary specificities of the heparinases have been observed, especially under exhaustive degradation conditions. As a part of ongoing investigations into the enzymology of heparinases, the relative rates of cleavage of I and G containing sites by heparinase I and III with defined substrates under different conditions have been measured. For instance heparinase III cleaves both at I and G containing linkages and not I2S [H. E. Conrad, Heparin Binding Proteins (Academic Press, San Diego, 1998).]. However, under the reaction conditions used in this study, there is a dramatic (8-10 fold) difference in the rates of cleavage, with I-containing linkages being clipped more slowly than G-containing linkages (FIG. 7A). […] Each reaction was followed by capillary electrophoresis. […] Under the “short” conditions of digest it is expected that only G-containing saccharides are cleaved to an appreciable extent. [Conditions for enzymatic digest of HLGAG oligosaccharides were set forth above, briefly, Digests were either designated as “short” or “exhaustive”. Short digests were completed with 50 nM enzyme for 10 minutes. Exhaustive digests were completed using 200 nM enzyme for either four hours or overnight. Partial nitrous acid cleavage was completed using a modification of published procedures. […]
# [5] = Cleavage of tetrasaccharides by heparinase I; assay type: biochemical; conditions: tetrasaccharide substrates, same study as FIG. 7A
# Description: as §1
molecule,measurement,setting,value
"ΔUHNH,6SGHNSIHNAc",Cleavage by heparinase II,[1],only cleavage at the G and not the I was observed
same,Cleavage by heparinase III,"[2]; ""short"" digest conditions",cleavage occurs only at the G
"ΔU2SHNS,6SI2SHNS,6SI2SHNS,6S [nonasulfated hexasaccharide]",FGF-2 binder selected from SMC heparan sulfate,"[3]; bovine aortic SMC HLGAG fragments digested with heparinase II, spotted on FGF-2",high affinity binder
same,Structures remaining on immobilized FGF upon a salt wash,[3]; hexasaccharide fraction from incomplete heparinase I digestion of porcine intestinal mucosa heparin,remained
"ΔU2SHNS,6SI2SHNS,6S",Degradation by a commercial source of heparinase III,"[2]; commercial enzyme, sulfatase contamination suggested",able to degrade
same,Cleavage by recombinant heparinase III,[2]; recombinant enzyme without contamination by other heparin degrading enzymes,does not cleave
"heparinase III: HLGAG degrading enzyme; cleaves at a glycosidic linkage before an unsulfated glucuronic acid (protein, UniProt Q59289 25-659, looked up) Heparin-sulfate lyase: QSSSITRKDFDHINLEYSGLEKVNKAVAAGNYDDAAKALLAYYREKSKAREPDFSNAEKPADIRQPIDKVTREMADKALVHQFQPHKGYGYFDYGKDINWQMWPVKDNEVRWQLHRVKWWQAMALVYHATGDEKYAREWVYQYSDWARKNPLGLSQDNDKFVWRPLEVSDRVQSLPPTFSLFVNSPAFTPAFLMEFLNSYHQQADYLSTHYAEQGNHRLFEAQRNLFAGVSFPEFKDSPRWRQTGISVLNTEIKKQVYADGMQFELSPIYHVAAIDIFLKAYGSAKRVNLEKEFPQSYVQTVENMIMALISISLPDYNTPMFGDSWITDKNFRMAQFASWARVFPANQAIKYFATDGKQGKAPNFLSKALSNAGFYTFRSGWDKNATVMVLKASPPGEFHAQPDNGTFELFIKGRNFTPDAGVFVYSGDEAIMKLRNWYRQTRIHSTLTLDNQNMVITKARQNKWETGNNLDVLTYTNPSYPNLDHQRSVLFINKKYFLVIDRAIGEATGNLGVHWQLKEDSNPVFDKTKNRVYTTYRDGNNLMIQSLNADRTSLNEEEGKVSYVYNKELKRPAFVFEKPKKNAGTQNFVSIVYPYDGQKAPEISIRENKGNDFEKGKLNLTLTINGKQQLVLVP","Difference in the rates of cleavage, I-containing linkages clipped more slowly than G-containing linkages",[4]; reaction conditions of this study,8-10 fold
same,Cleavage of G-containing linkages relative to I-containing linkages,"[4]; recombinant heparinase III, tetrasaccharide substrates",roughly 10 times
"heparinase I: HLGAG degrading enzyme; clips at a glycosidic linkage before a 2-O sulfated iduronic acid (protein, UniProt Q05819 22-384, looked up) Heparin lyase I: QQKKSGNIPYRVNVQADSAKQKAIIDNKWVAVGINKPYALQYDDKLRFNGKPSYRFELKAEDNSLEGYAAGETKGRTELSYSYATTNDFKKFPPSVYQNAQKLKTVYHYGKGICEQGSSRSYTFSVYIPSSFPDNATTIFAQWHGAPSRTLVATPEGEIKTLSIEEFLALYDRMIFKKNIAHDKVEKKDKDGKITYVAGKPNGWKVEQGGYPTLAFGFSKGYFYIKANSDRQWLTDKADRNNANPENSEVMKPYSSEYKTSTIAYKMPFAQFPKDCWITFDVAIDWTKYGKEANTILKPGKLDVMMTYTKNKKPQKAHIVNQQEILIGRNDDDGYYFKFGIYRVGNSTVPVTYNLSGYSETAR",Linkage specificity of cleavage by heparinase I,[5],cleavage only occurs at I2S-containing linkages
